Patent US12286442B2, “Methods and materials for increasing transcription factor eb polypeptide levels” (University of Pittsburgh—Of the Commonwealth System of …, priority 2019, dated 2025)

How the values were obtained:
BEAS-2B cells = assay: Toxicity: compound concentration needed to induce greater than 50 percent of cell loss; assay type: cell-based, human; conditions: 18 hours incubation
Summary of the method: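 BEAS-2B cells stably expressing TFEB-EGFP treated with serial compound dilutions for 18 h, then PFA-fixed, DAPI-stained and imaged. Toxicity scored as the concentration causing >50% cell loss, binned as ≥25 μM, <25 and >1 μM, or ≤1 μM ("+++").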

TFEB = assay: High content screen measuring TFEB nuclear accumulation (TFEB nuclear/cytosol ratio) in BEAS-2B cells stably expressing TFEB-EGFP; assay type: cell-based, human; conditions: 18 hours incubation
Summary of the method: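 BEAS-2B cells stably expressing TFEB-EGFP (~2300–2500 per well) pre-incubated 8 hours, then exposed to serially diluted compounds (DMEM low glucose, 2% FBS) for 18 hours, PFA-fixed and DAPI-stained. Imaged nuclear (DAPI mask) vs cytosolic (expanded mask) TFEB-GFP; activity = minimal concentration raising nuclear/cytosol ratio by 25%.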

Row | Structure (SMILES) | toxicity (compound concentration needed to induce greater than 50 percent of cell loss) (BEAS-2B cells) | efficacy (minimal compound concentration needed to increase TFEB nuclear/cytosol ratio by 25%) (TFEB)
1 | CCc1nc2ccc(Nc3nc(-c4ccncc4)nc4cccc(F)c34)cc2s1 [Compound 368] | + (cell loss of greater than 50 percent at a concentration that equals or is greater than 25 μM was represented as) | ++ (“++” equals between ≤25 μM and >1 μM)
2 | CCc1nc2ccc(Nc3nc(-c4ccncc4)nc4c(F)cccc34)cc2s1 [Compound 369] | + (cell loss of greater than 50 percent at a concentration that equals or is greater than 25 μM was represented as) | + (“+” equals >25 μM)
3 | COc1ccc2c(Nc3cc(F)c4[nH]ccc4c3)nc(-c3ccncc3)nc2c1 [Compound 370] | + (cell loss of greater than 50 percent at a concentration that equals or is greater than 25 μM was represented as) | +++ (“+++” equals ≤1 μM)
4 | Cc1cccc2c(Nc3ccc4ncsc4c3)nc(-c3ccncc3)nc12 [Compound 371] | + (cell loss of greater than 50 percent at a concentration that equals or is greater than 25 μM was represented as) | +++ (“+++” equals ≤1 μM)
5 | Fc1cccc2c(Nc3ccc4ncsc4c3)nc(-c3ccncc3)nc12 [Compound 372] | + (cell loss of greater than 50 percent at a concentration that equals or is greater than 25 μM was represented as) | +++ (“+++” equals ≤1 μM)
6 | Fc1cccc2c(Nc3ccc4nc(C5CC5)sc4c3)nc(-c3ccncc3)nc12 [Compound 373] | + (cell loss of greater than 50 percent at a concentration that equals or is greater than 25 μM was represented as) | ++ (“++” equals between ≤25 μM and >1 μM)
7 | CC(C)c1nc2ccc(Nc3nc(-c4ccncc4)nc4ccccc34)cc2o1 [Compound 374] | + (cell loss of greater than 50 percent at a concentration that equals or is greater than 25 μM was represented as) | ++ (“++” equals between ≤25 μM and >1 μM)
8 | CC(C)c1nc2ccc(Nc3nc(-c4ccncc4)nc4ncccc34)cc2o1 [Compound 375] | + (cell loss of greater than 50 percent at a concentration that equals or is greater than 25 μM was represented as) | +++ (“+++” equals ≤1 μM)
9 | COc1ccc2nc(-c3ccncc3)nc(Nc3ccc4nc(C(C)C)sc4c3)c2c1 [Compound 376] | + (cell loss of greater than 50 percent at a concentration that equals or is greater than 25 μM was represented as) | +++ (“+++” equals ≤1 μM)
10 | Cc1nc2ccc(Nc3nc(-c4ccncc4)nc4c(C)cccc34)cc2o1 [Compound 377] | + (cell loss of greater than 50 percent at a concentration that equals or is greater than 25 μM was represented as) | ++ (“++” equals between ≤25 μM and >1 μM)
11 | Cc1nc2ccc(Nc3nc(-c4ccncc4)nc4c(C)cccc34)cc2s1 [Compound 378] | + (cell loss of greater than 50 percent at a concentration that equals or is greater than 25 μM was represented as) | +++ (“+++” equals ≤1 μM)
12 | Cc1cccc2c(Nc3ccc4nc(C5CC5)sc4c3)nc(-c3ccncc3)nc12 [Compound 379] | + (cell loss of greater than 50 percent at a concentration that equals or is greater than 25 μM was represented as) | +++ (“+++” equals ≤1 μM)
13 | Cc1cccc2c(Nc3ccc4cnsc4c3)nc(-c3ccncc3)nc12 [Compound 380] | + (cell loss of greater than 50 percent at a concentration that equals or is greater than 25 μM was represented as) | ++ (“++” equals between ≤25 μM and >1 μM)
14 | Cc1nc2ccc(Nc3nc(-c4ccncc4)nc4c(F)cccc34)cc2s1 [Compound 381] | + (cell loss of greater than 50 percent at a concentration that equals or is greater than 25 μM was represented as) | +++ (“+++” equals ≤1 μM)
15 | Fc1cccc2c(Nc3ccc4cnsc4c3)nc(-c3ccncc3)nc12 [Compound 382] | + (cell loss of greater than 50 percent at a concentration that equals or is greater than 25 μM was represented as) | + (“+” equals >25 μM)
16 | c1cnc2nc(-c3cncs3)nc(Nc3ccc4[nH]ncc4c3)c2c1 [Compound 383] | + (cell loss of greater than 50 percent at a concentration that equals or is greater than 25 μM was represented as) | ++ (“++” equals between ≤25 μM and >1 μM)
17 | Fc1cc(Nc2nc(N3CCOCC3)nc3ncccc23)cc2cc[nH]c12 [Compound 384] | + (cell loss of greater than 50 percent at a concentration that equals or is greater than 25 μM was represented as) | +++ (“+++” equals ≤1 μM)
18 | Fc1cc(Nc2nc(-c3cc[nH]c3)nc3ncccc23)cc2cc[nH]c12 [Compound 385] | + (cell loss of greater than 50 percent at a concentration that equals or is greater than 25 μM was represented as) | ++ (“++” equals between ≤25 μM and >1 μM)
19 | c1cnc2nc(-c3cncs3)nc(Nc3ccc4[nH]ccc4c3)c2c1 [Compound 386] | + (cell loss of greater than 50 percent at a concentration that equals or is greater than 25 μM was represented as) | +++ (“+++” equals ≤1 μM)
20 | c1ccc2c(Nc3ccc4[nH]nnc4c3)nc(-c3cncs3)nc2c1 [Compound 387] | + (cell loss of greater than 50 percent at a concentration that equals or is greater than 25 μM was represented as) | + (“+” equals >25 μM)
21 | c1ccc2c(Nc3ccc4cnccc4c3)nc(-c3cncs3)nc2c1 [Compound 388] | + (cell loss of greater than 50 percent at a concentration that equals or is greater than 25 μM was represented as) | + (“+” equals >25 μM)
22 | c1ccc2c(Nc3ccc4cn[nH]c4c3)nc(-c3cncs3)nc2c1 [Compound 389] | + (cell loss of greater than 50 percent at a concentration that equals or is greater than 25 μM was represented as) | + (“+” equals >25 μM)
